Measurements reported in PubChem BioAssay (NCI).
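Each compound was tested at five concentrations against cells in 96-well plates for 48 hours. TGI marks complete inhibition of growth.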

How the values were obtained:
Assay in all cases: inhibition of tumour cell growth, NCI panel, 48 h
NCI-H23 lung = test system: NCI-H23 lung
COLO 205 colon = test system: COLO 205 colon
DU-145 prostate = test system: DU-145 prostate
SNB-75 CNS = test system: SNB-75 CNS
RXF 393 renal = test system: RXF 393 renal
NCI-H460 lung = test system: NCI-H460 lung
EKVX NSCLC = test system: EKVX NSCLC
MDA-MB-435 = test system: MDA-MB-435
SW-620 colon = test system: SW-620 colon
SF-268 CNS = test system: SF-268 CNS
SNB-19 CNS = test system: SNB-19 CNS
T-47D breast = test system: T-47D breast
MCF7 breast = test system: MCF7 breast
NCI-H226 lung = test system: NCI-H226 lung
HCC-2998 colon = test system: HCC-2998 colon
HCT-116 colon = test system: HCT-116 colon
IGROV1 ovarian = test system: IGROV1 ovarian
A498 renal = test system: A498 renal
TK-10 renal = test system: TK-10 renal
SK-MEL-5 melanoma = test system: SK-MEL-5 melanoma
M14 melanoma = test system: M14 melanoma
ACHN renal = test system: ACHN renal
PC-3 prostate = test system: PC-3 prostate
HCT-15 colon = test system: HCT-15 colon
CAKI-1 renal = test system: CAKI-1 renal
HS 578T breast = test system: HS 578T breast
SK-OV-3 ovarian = test system: SK-OV-3 ovarian
K-562 leukemia = test system: K-562 leukemia
SN12C renal = test system: SN12C renal
U251 CNS = test system: U251 CNS
CCRF-CEM leukemia = test system: CCRF-CEM leukemia
LOX IMVI melanoma = test system: LOX IMVI melanoma
OVCAR-5 ovarian = test system: OVCAR-5 ovarian
BT-549 breast = test system: BT-549 breast
MDA-N = test system: MDA-N
OVCAR-8 ovarian = test system: OVCAR-8 ovarian
RPMI-8226 leukemia = test system: RPMI-8226 leukemia
MDA-MB-231 breast = test system: MDA-MB-231 breast
UACC-257 melanoma = test system: UACC-257 melanoma
UACC-62 melanoma = test system: UACC-62 melanoma
HOP-62 NSCLC = test system: HOP-62 NSCLC
MALME-3M melanoma = test system: MALME-3M melanoma
HT29 colon = test system: HT29 colon
UO-31 renal = test system: UO-31 renal
NCI-H522 lung = test system: NCI-H522 lung
SK-MEL-2 melanoma = test system: SK-MEL-2 melanoma
SF-295 CNS = test system: SF-295 CNS
MOLT-4 leukemia = test system: MOLT-4 leukemia
NCI/ADR-RES ovarian = test system: NCI/ADR-RES ovarian
OVCAR-3 ovarian = test system: OVCAR-3 ovarian
KM12 colon = test system: KM12 colon
A549 NSCLC = test system: A549 NSCLC
786-0 renal = test system: 786-0 renal
OVCAR-4 ovarian = test system: OVCAR-4 ovarian
SF-539 CNS = test system: SF-539 CNS
HL-60(TB) leukemia = test system: HL-60(TB) leukemia
HOP-92 NSCLC = test system: HOP-92 NSCLC
SK-MEL-28 melanoma = test system: SK-MEL-28 melanoma
SR leukemia = test system: SR leukemia

Measured: TGI

CC(=O)OCC(OC(C)=O)C(OC(C)=O)C(OC(C)=O)C(C=NN(C(C)=O)S(=O)(=O)c1ccc(/C=C2\NC(=O)NC2=O)cc1)OC(C)=O (stereo not given)
not listed: SF-539 CNS | HL-60(TB) leukemia | HOP-92 NSCLC | SK-MEL-28 melanoma | SR leukemia
> 100 µM: all other assays above

CCOC(=O)c1ccc(Nc2nc3ccccc3nc2C(=O)OCC)cc1
not listed: RXF 393 renal | SW-620 colon | NCI-H226 lung | A498 renal | PC-3 prostate | LOX IMVI melanoma | UACC-257 melanoma | SF-295 CNS
> 100 µM: all other assays above
